Data published in patent publication US12291651B2, “Liquid crystal-infused slippery anti-fouling surfaces” (priority 2021, dated 2025).
Values belong to the compound of their own block, whether it stands above or below them.

Assays:
[1] = air-water interface; cited from earlier work
[2] = Contact angle and base diameter of surfactant droplets on LC-infused SLIPS; format: physicochemical; details: 50 μL droplets: 100 mM DBTAB aqueous; 100 μM SDS in PBS
[3] = system: S. aureus QS; details: cited from earlier work
[4] = system: S. aureus QS; assay: Sliding time of droplets of S. aureus WT culture grown with QS inhibitor on LC-infused SLIPS; format: cell-based; details: WT S. aureus cultured 24 hours with 1 μM inhibitor; QS mutant ~7 s, WT ~27 s
Method: Characterization of Droplet Sliding Times. Characterization of the sliding times of droplets placed on the surfaces of LC-infused SLIPS was performed in the following general manner. LC-infused SLIPS were placed on a custom-made stage, and the stage was attached to the moving arm of a digital protractor using binding clips. The digital protractor was set at a specified sample angle, and a pre-determined volume of aqueous solution was placed as a droplet on the surface of the liquid-infused surface. Sliding droplets were recorded on digital video, and the time required for droplets to slide 4.0 cm along the surface was measured using a digital timer. […] For each surfactant solution, the sliding times of at least 3-5 droplets were measured and used to calculate an average sliding time with standard deviation. […]
Additional experiments were performed to determine whether LC-infused SLIPS could detect the presence of PSMs in live cultures of S. aureus and, thereby, provide methods to monitor QS in communities of this pathogen in ways analogous to the studies of P. aeruginosa above. For these experiments, a S. aureus WT strain and a QS mutant strain (lacking AgrBD, proteins critical for QS) were cultured for 24 hours and the sliding times of droplets of these cultures on LC-infused SLIPS were measured. […]

Compound: CCCCCCCCCCCC[N+](C)(C)C.[Br-] [DTAB, dodecyl-trimethylammonium bromide]
limiting surface area [1]: 55-63 Å^2

droplet base diameter on LC-infused SLIPS [2]: 4.14±0.02 mm
Compound: CCCCCCCCCCCCOS(=O)(=O)[O-].[Na+] [SDS, Sodium dodecyl sulfate]

Compound: AIP-III D4A
concentration that fully inhibits S. aureus QS [3]: ≥ 1 nM
sliding time of culture droplets [4]: ~7 s
